molecular target: MAGE-A11:PCF11 (Homo sapiens (Human), UniProt P43364); test: TR-FRET single point screening at 15 μM; assay type: binding; design: unit not given here; details: single point TR-FRET screening at 15 μM against MAGE-A11:PCF11
Procedure, shortened: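 Single-point screen at 15 μM (0.25% DMSO) measuring disruption of GST-MAGEA11 (5 nM) binding to FAM-PCF11_4 peptide (200 nM) detected by Tb-anti-GST (5 nM). Buffer 50 mM Tris pH 7.5, 20 mM MgCl2, 0.1 mg/ml BSA, 1 mM DTT; 90 min at ~25 °C; 520/490 nm ratio converted to % inhibition versus controls.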

Chain of MAGE-A11:PCF11 (P43364 218-429): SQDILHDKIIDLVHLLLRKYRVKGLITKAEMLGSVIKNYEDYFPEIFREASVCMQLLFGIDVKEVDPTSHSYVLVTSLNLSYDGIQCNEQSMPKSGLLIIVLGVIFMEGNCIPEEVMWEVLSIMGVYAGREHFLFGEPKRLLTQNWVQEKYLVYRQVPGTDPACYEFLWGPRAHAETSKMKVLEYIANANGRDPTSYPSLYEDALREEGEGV

Row | SMILES | TR-FRET signal
1 | Clc1ccc2c(NCCCCN(Cc3ccccc3)Cc3ccncc3)ccnc2c1 [SJ000361190] | −9.945
2 | Cc1ccsc1CN(CCCCNc1ccnc2cc(Cl)ccc12)Cc1ccccc1 [SJ000361191] | 23.44
3 | FC(F)(F)c1ccccc1CN(CCCCNc1ccnc2cc(Cl)ccc12)Cc1ccccc1 [SJ000361192] | 27.82
4 | Cc1cc(C)c(CN(CCCCNc2ccnc3cc(Cl)ccc23)Cc2ccccc2)c(C)c1 [SJ000361193] | 26.03
5 | Clc1ccc2c(NCCCCN(Cc3ccccc3)CC3CCCCC3)ccnc2c1 [SJ000361194] | 41.93
6 | CCC(CC)CN(CCCCNc1ccnc2cc(Cl)ccc12)Cc1ccccc1 [SJ000361195] | 25.54
7 | CCCCCN(CCCCNc1ccnc2cc(Cl)ccc12)Cc1ccccc1 [SJ000361196] | 19.1
8 | Fc1ccc(CN(CCCCNc2ccnc3cc(Cl)ccc23)Cc2ccccc2)cc1F [SJ000361197] | 26.09
9 | Fc1ccccc1CN(CCCCNc1ccnc2cc(Cl)ccc12)Cc1ccccc1 [SJ000361198] | 20.78
10 | Fc1cccc(CN(CCCCNc2ccnc3cc(Cl)ccc23)Cc2ccccc2)c1 [SJ000361199] | 28.34
11 | O=[N+]([O-])c1ccccc1CN(CCCCNc1ccnc2cc(Cl)ccc12)Cc1ccccc1 [SJ000361200] | 17.21
12 | O=[N+]([O-])c1cccc(CN(CCCCNc2ccnc3cc(Cl)ccc23)Cc2ccccc2)c1 [SJ000361201] | 24.37
13 | O=[N+]([O-])c1ccc(CN(CCCCNc2ccnc3cc(Cl)ccc23)Cc2ccccc2)cc1 [SJ000361202] | 15.25
14 | O=C(O)c1ccccc1CN(CCCCNc1ccnc2cc(Cl)ccc12)Cc1ccccc1 [SJ000361203] | 4.099
15 | Clc1ccc2c(NCCCCN(Cc3ccccc3)Cc3cccc4ccccc34)ccnc2c1 [SJ000361204] | 26.49
16 | Clc1ccc2c(NCCCCN(Cc3ccccc3)Cc3ccc4ccccc4c3)ccnc2c1 [SJ000361205] | 24.64

Row | SMILES | TR-FRET signal
17 | Cc1cccc(CN(CCCCNc2ccnc3cc(Cl)ccc23)Cc2ccccc2)c1 [SJ000361206] | 29.54
18 | Clc1ccc(CN(CCCCNc2ccnc3cc(Cl)ccc23)Cc2ccccc2)c(Cl)c1 [SJ000361207] | 35.43
19 | CCC(C)CN(CCCCNc1ccnc2cc(Cl)ccc12)Cc1ccccc1 (stereo not shown) [SJ000361208] | 35.37
20 | Cc1ccc(C)c(CN(CCCCNc2ccnc3cc(Cl)ccc23)Cc2ccccc2)c1 [SJ000361209] | 32.65
21 | COc1cccc(CN(CCCCNc2ccnc3cc(Cl)ccc23)Cc2ccccc2)c1 [SJ000361210] | 11.72
22 | Clc1ccc2c(NCCCCN(CCc3ccccc3)Cc3ccccc3)ccnc2c1 [SJ000361211] | 23.38
23 | CCCCCCN(CCCCNc1ccnc2cc(Cl)ccc12)Cc1ccccc1 [SJ000361212] | 23.58
24 | CCCCCN(CCCCC)CC(=O)Nc1c2c(nc3ccccc13)CCC2 [SJ000487033] | −68.07
25 | COC(=O)CN1CCN(c2cc(C)nc3ccccc23)C(C)C1=O (stereo not shown) [SJ000516812] | 3.503
26 | Clc1ccc2c(N3CCN(CCCN4CCN(c5ccnc6cc(Cl)ccc56)CC4)CC3)ccnc2c1 [SJ000518980] | −2.989
27 | Cc1[nH]cnc1CN(CCCCNc1ccnc2cc(Cl)ccc12)Cc1ccccc1 [SJ000520428] | 15.11
28 | COC(=O)CCCCCN(CCCCNc1ccnc2cc(Cl)ccc12)Cc1ccccc1 [SJ000520432] | 23.58
29 | Clc1ccc2c(NCCCCN(Cc3ccccc3)Cc3ccc4[nH]ccc4c3)ccnc2c1 [SJ000520434] | 69.44
30 | Cn1ccnc1CN(CCCCNc1ccnc2cc(Cl)ccc12)Cc1ccccc1 [SJ000520435] | 5.888
31 | Clc1ccc2c(NCCCCN(Cc3ccccc3)Cc3cccc4c3OCO4)ccnc2c1 [SJ000520436] | 21.65

same assay, conditions: single point TR-FRET screening of quinoline compounds against MAGE-A11:PCF11; 15 μM

Row | SMILES | TR-FRET signal
32 | Clc1ccc2c(NCCCN(Cc3ccccc3)CC3CCCCC3)ccnc2c1 [SJ000361171] | 28.21
33 | CCC(CC)CN(CCCNc1ccnc2cc(Cl)ccc12)Cc1ccccc1 [SJ000361172] | 22.91
34 | CCCCCN(CCCNc1ccnc2cc(Cl)ccc12)Cc1ccccc1 [SJ000361173] | 26.56
35 | Fc1ccc(CN(CCCNc2ccnc3cc(Cl)ccc23)Cc2ccccc2)cc1F [SJ000361174] | 27.55
36 | Fc1ccccc1CN(CCCNc1ccnc2cc(Cl)ccc12)Cc1ccccc1 [SJ000361175] | 0.9627
37 | Fc1cccc(CN(CCCNc2ccnc3cc(Cl)ccc23)Cc2ccccc2)c1 [SJ000361176] | 20.36
38 | O=[N+]([O-])c1ccccc1CN(CCCNc1ccnc2cc(Cl)ccc12)Cc1ccccc1 [SJ000361177] | 16.42
39 | O=[N+]([O-])c1cccc(CN(CCCNc2ccnc3cc(Cl)ccc23)Cc2ccccc2)c1 [SJ000361178] | 17.02
40 | O=[N+]([O-])c1ccc(CN(CCCNc2ccnc3cc(Cl)ccc23)Cc2ccccc2)cc1 [SJ000361179] | 20.2
41 | O=C(O)c1ccccc1CN(CCCNc1ccnc2cc(Cl)ccc12)Cc1ccccc1 [SJ000361180] | 9.598
42 | Clc1ccc2c(NCCCN(Cc3ccccc3)Cc3cccc4ccccc34)ccnc2c1 [SJ000361181] | 26.23
43 | Clc1ccc2c(NCCCN(Cc3ccccc3)Cc3ccc4ccccc4c3)ccnc2c1 [SJ000361182] | 22.05
44 | Cc1cccc(CN(CCCNc2ccnc3cc(Cl)ccc23)Cc2ccccc2)c1 [SJ000361183] | 6.02
45 | Clc1ccc(CN(CCCNc2ccnc3cc(Cl)ccc23)Cc2ccccc2)c(Cl)c1 [SJ000361184] | 25.5
46 | Clc1ccc2c(NCCCN(CCCc3ccccc3)Cc3ccccc3)ccnc2c1 [SJ000361185] | 6.074
47 | CCC(C)CN(CCCNc1ccnc2cc(Cl)ccc12)Cc1ccccc1 (stereo not shown) [SJ000361186] | 29.6
48 | Cc1ccc(C)c(CN(CCCNc2ccnc3cc(Cl)ccc23)Cc2ccccc2)c1 [SJ000361187] | 20.22
49 | COc1cccc(CN(CCCNc2ccnc3cc(Cl)ccc23)Cc2ccccc2)c1 [SJ000361188] | −9.05
50 | CCCCCCN(CCCNc1ccnc2cc(Cl)ccc12)Cc1ccccc1 [SJ000361189] | −40.75
51 | CCCN(CCC)CCCNc1ccnc2cc(C(F)(F)F)ccc12 [SJ000361250] | 15.68
52 | CCCN(CCCNc1ccnc2cc(C(F)(F)F)ccc12)Cc1ccncc1 [SJ000361251] | 17.49
53 | CCCN(CCCNc1ccnc2cc(C(F)(F)F)ccc12)Cc1ccccn1 [SJ000361252] | 15.16
54 | CCCN(CCCNc1ccnc2cc(C(F)(F)F)ccc12)Cc1cccs1 [SJ000361253] | 19.53
55 | CCCN(CCCNc1ccnc2cc(C(F)(F)F)ccc12)Cc1ccsc1 [SJ000361254] | 28.88

Row | SMILES | TR-FRET signal
56 | CCCN(CCCNc1ccnc2cc(C(F)(F)F)ccc12)Cc1ccc[nH]1 [SJ000361255] | 30.66
57 | CCCN(CCCNc1ccnc2cc(C(F)(F)F)ccc12)Cc1ccccc1 [SJ000361256] | 28.82
58 | CCCN(CCCNc1ccnc2cc(C(F)(F)F)ccc12)Cc1ccccc1O [SJ000361257] | 26.5
59 | CCCN(CCCNc1ccnc2cc(C(F)(F)F)ccc12)Cc1ccc(C)s1 [SJ000361258] | 19.08
60 | CCCN(CCCNc1ccnc2cc(C(F)(F)F)ccc12)Cc1ccccc1C(F)(F)F [SJ000361259] | 4.988
61 | CCCN(CCCNc1ccnc2cc(C(F)(F)F)ccc12)Cc1cccc(OC)c1O [SJ000361260] | 15.49
62 | CCCN(CCCNc1ccnc2cc(C(F)(F)F)ccc12)Cc1ccc(C)o1 [SJ000361261] | 23.91
63 | CCCN(CCCNc1ccnc2cc(C(F)(F)F)ccc12)Cc1c(F)cccc1OC [SJ000361262] | 29.23
64 | CCCN(CCCNc1ccnc2cc(C(F)(F)F)ccc12)Cc1cc(OC)ccc1O [SJ000361263] | 25.26
65 | CCCN(CCCNc1ccnc2cc(C(F)(F)F)ccc12)Cc1c(C)cc(C)cc1C [SJ000361264] | 19.93
66 | CCCN(CCCNc1ccnc2cc(C(F)(F)F)ccc12)Cc1ccco1 [SJ000361265] | 24.11
67 | CCCN(CCCNc1ccnc2cc(C(F)(F)F)ccc12)CC1CC1 [SJ000361266] | 48.15
68 | CCCN(CCCNc1ccnc2cc(C(F)(F)F)ccc12)Cc1ccoc1 [SJ000361267] | 28.55
69 | CCCN(CCCNc1ccnc2cc(C(F)(F)F)ccc12)CC1CCCCC1 [SJ000361268] | 33.31
70 | CCCN(CCCNc1ccnc2cc(C(F)(F)F)ccc12)CC(CC)CC [SJ000361269] | 30.66
71 | CCCN(CCCNc1ccnc2cc(C(F)(F)F)ccc12)Cc1ccc2c(c1)OCO2 [SJ000361270] | 5.623
72 | CCCCCN(CCC)CCCNc1ccnc2cc(C(F)(F)F)ccc12 [SJ000361271] | 30.93
73 | CCCN(CCCNc1ccnc2cc(C(F)(F)F)ccc12)Cc1ccc(F)c(F)c1 [SJ000361272] | 13.84
74 | CCCN(CCCNc1ccnc2cc(C(F)(F)F)ccc12)Cc1ccc(OC)cc1 [SJ000361273] | 22.9
75 | CCCN(CCCNc1ccnc2cc(C(F)(F)F)ccc12)Cc1ccccc1F [SJ000361274] | 19.22
76 | COC(=O)CCCCCN(CCCNc1ccnc2cc(Cl)ccc12)Cc1ccccc1 [SJ000520429] | 17.14
77 | Clc1ccc2c(NCCCN(Cc3ccccc3)Cc3ccc4[nH]ccc4c3)ccnc2c1 [SJ000520430] | 66.43
78 | Cn1ccnc1CN(CCCNc1ccnc2cc(Cl)ccc12)Cc1ccccc1 [SJ000520431] | 15.36
79 | Clc1ccc2c(NCCCN(Cc3ccccc3)Cc3c[nH]c4ccccc34)ccnc2c1 [SJ000520433] | 40.19
